Assay results: ChEMBL document CHEMBL4196200 (J Med Chem, 2018)

Experiments:
Vasopressin V1a receptor [1] = target: T1, Vasopressin V1a receptor (Homo sapiens, UniProt P37288); experiment: Displacement of [3H]-AVP from human V1A receptor expressed in CHO cell membranes by radioligand binding assay
Target sequence in this assay (P37288 whole entry): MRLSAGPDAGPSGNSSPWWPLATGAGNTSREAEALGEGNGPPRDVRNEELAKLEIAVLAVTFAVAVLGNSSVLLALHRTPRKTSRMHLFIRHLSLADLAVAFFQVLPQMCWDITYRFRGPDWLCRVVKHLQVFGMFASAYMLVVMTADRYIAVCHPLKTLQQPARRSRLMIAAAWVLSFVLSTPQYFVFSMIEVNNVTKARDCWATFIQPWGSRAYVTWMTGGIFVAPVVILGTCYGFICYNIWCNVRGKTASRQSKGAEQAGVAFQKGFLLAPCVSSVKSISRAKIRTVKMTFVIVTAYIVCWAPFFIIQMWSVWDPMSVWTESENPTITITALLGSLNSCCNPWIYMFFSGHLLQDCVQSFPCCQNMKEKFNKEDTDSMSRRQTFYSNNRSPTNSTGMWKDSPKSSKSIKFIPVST

Vasopressin V2 receptor [2] = target: T2, Vasopressin V2 receptor (Homo sapiens, UniProt P30518); experiment: Displacement of [3H]-AVP from human V2 receptor expressed in CHO cell membranes by radioligand binding assay
T2 sequence (P30518 whole entry): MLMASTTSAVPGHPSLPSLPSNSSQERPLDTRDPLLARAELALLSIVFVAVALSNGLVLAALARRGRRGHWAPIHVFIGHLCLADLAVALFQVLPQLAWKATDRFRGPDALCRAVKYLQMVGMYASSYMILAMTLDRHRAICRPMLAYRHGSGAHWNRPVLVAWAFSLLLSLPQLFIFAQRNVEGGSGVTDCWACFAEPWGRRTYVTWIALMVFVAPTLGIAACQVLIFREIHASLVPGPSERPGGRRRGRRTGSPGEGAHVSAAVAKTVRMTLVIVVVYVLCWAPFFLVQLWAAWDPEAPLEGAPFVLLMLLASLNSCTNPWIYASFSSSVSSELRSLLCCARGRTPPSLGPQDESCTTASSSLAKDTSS

Oxytocin receptor = target: T3, Oxytocin receptor (Homo sapiens, UniProt P30559); experiment: Displacement of [3H]-AVP from human OXR receptor expressed in CHO cell membranes by radioligand binding assay
T3 sequence (P30559 whole entry): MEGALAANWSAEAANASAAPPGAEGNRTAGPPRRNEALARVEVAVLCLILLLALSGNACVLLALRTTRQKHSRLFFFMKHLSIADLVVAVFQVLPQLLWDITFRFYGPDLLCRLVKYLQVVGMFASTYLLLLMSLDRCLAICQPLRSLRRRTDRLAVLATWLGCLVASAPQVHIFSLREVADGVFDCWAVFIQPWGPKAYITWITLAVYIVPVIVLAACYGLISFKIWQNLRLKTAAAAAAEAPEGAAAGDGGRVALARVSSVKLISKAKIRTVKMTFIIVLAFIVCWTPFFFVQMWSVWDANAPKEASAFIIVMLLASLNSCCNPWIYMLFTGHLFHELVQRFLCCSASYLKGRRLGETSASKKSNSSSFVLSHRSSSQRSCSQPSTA

Vasopressin V1a receptor [3] = target: T1, Vasopressin V1a receptor; experiment: Antagonist activity at human V1A receptor expressed in CHO cells assessed as inhibition of AVP-induced myo-inositol 1-phosphate accumulation at 1 uM by IP-One assay relative to AVP; format: functional, cell-based
Target sequence in this assay (P37288 whole entry, looked up): as the sequence (P37288 whole entry) above

Vasopressin V1a receptor [4] = target: T1, Vasopressin V1a receptor; experiment: Agonist activity at human V1A receptor expressed in CHO cells assessed as increase in myo-inositol 1-phosphate accumulation at 1 uM by IP-One assay relative to AVP; format: functional, cell-based
Target sequence in this assay (P37288 whole entry, looked up): as the sequence (P37288 whole entry) above

Vasopressin V2 receptor [5] = target: T2, Vasopressin V2 receptor; experiment: Agonist activity at human V2 receptor expressed in CHO cells assessed as increase in cAMP accumulation by cAMP dynamic 2 assay; format: functional, cell-based
Vasopressin V1a receptor [6] = target: T1, Vasopressin V1a receptor; experiment: Antagonist activity at human V1A receptor expressed in CHO cells assessed as inhibition of AVP-induced myo-inositol 1-phosphate accumulation by IP-One assay; format: functional, cell-based
Target sequence in this assay (P37288 whole entry, looked up): as the sequence (P37288 whole entry) above

[7] = target: T4, Oxytocin receptor (Homo sapiens) (UniProt P30559); experiment: Antagonist activity at human OTR receptor expressed in CHO cells assessed as inhibition of OT-induced myo-inositol 1-phosphate accumulation by IP-One assay; format: functional, cell-based
T4 sequence (whole entry): T3 sequence (P30559 whole entry)

[8] = target: T4, Oxytocin receptor (Homo sapiens); experiment: Agonist activity at human OTR receptor expressed in CHO cells assessed as increase in myo-inositol 1-phosphate accumulation at 1 uM by IP-One assay relative to OT; format: functional, cell-based
[9] = target: T4, Oxytocin receptor (Homo sapiens); experiment: Antagonist activity at human OTR receptor expressed in CHO cells assessed as inhibition of OT-induced myo-inositol 1-phosphate accumulation at 1 uM by IP-One assay relative to OT; format: functional, cell-based
Homo sapiens [10] = species: Homo sapiens; experiment: Selectivity for human V1a receptor over human V2 receptor
Homo sapiens [11] = species: Homo sapiens; experiment: Selectivity for human OTR receptor over human V2 receptor

| SMILES | Ki (Vasopressin V1a receptor [1]) | Ki (Vasopressin V2 receptor [2]) | Ki (Oxytocin receptor) | inhibition (Vasopressin V1a receptor [3]) | Emax (Vasopressin V1a receptor [4]) | Kact (Vasopressin V2 receptor [5]) | Kinact (Vasopressin V1a receptor [6]) | Kinact [7] | Emax [8] | inhibition [9] | Selectivity ratio (Homo sapiens [10]) | Selectivity ratio (Homo sapiens [11]) |
| --- | --- | --- | --- | --- | --- | --- | --- | --- | --- | --- | --- | --- |
| Cc1ccn(-c2ccc(C(=O)N3CCCC(=O)c4ccccc43)cc2)n1 | < 10 nM | > 1000 nM | < 10 nM | 19% | < 10% |  |  |  |  |  |  |  |
| CCCc1ccc(C(=O)N2CCCCc3ccccc32)cc1 | 63 nM | 121 nM | 104 nM |  | < 10% | 92 nM | 184 nM | 172 nM | < 10% |  |  |  |
| CCCCc1ccc(C(=O)N2CCCCc3ccccc32)cc1 | 28 nM | 52 nM | 37.4 nM |  | < 10% | 18 nM | 421 nM | 113 nM | < 10% |  |  |  |
| O=C(c1ccc(Cl)cc1)N1CCCCc2ccccc21 | 556 nM | 507 nM | < 10 nM |  | < 10% |  | 149 nM |  | < 10% | 24.1% |  |  |
| Cc1ccn(-c2ccc(C(=O)N3CCCCCC3)c(Cl)c2)n1 | < 10 nM | < 10 nM | < 10 nM | < 10% | < 10% |  |  |  |  | < 10% |  |  |
| Nc1ccc(C(=O)N2CCCCc3ccccc32)cc1 | 734 nM | > 1000 nM | < 10 nM | 37% | < 10% |  |  |  | < 10% | 15% |  |  |
| Cc1ccn(-c2ccc(C(=O)N3CCCC(O)c4ccccc43)c(Cl)c2)n1 (stereo not drawn) | < 10 nM | 100 nM | 800 nM | 26% | < 10% | 28 nM |  |  |  | 28% | > 100 | 8 |
| Cc1ccn(-c2ccc(C(=O)N3CCCC(O)c4ccccc43)cc2)n1 (stereo not drawn) | 164 nM | 1150 nM | 686 nM | 69% | < 10% |  |  |  |  | 45% | 0.14 | 0.6 |
| CN(C)c1ccc(C(=O)N2CCCCc3ccccc32)cc1 | 82 nM | 468 nM | > 1000 nM |  | < 10% | 80 nM | 81 nM | 186 nM | < 10% |  |  |  |
| Cc1ccn(-c2ccc(C(=O)N3CCCC(N(C)C)c4ccccc43)cc2)n1 (stereo not drawn) | 741 nM | > 1000 nM | 1330 nM | 15% | < 10% |  |  |  |  | 21% | < 0.74 |  |
| C[N+](C)(C)c1ccc(C(=O)N2CCCCc3ccccc32)cc1 | > 1000 nM | > 1000 nM | < 10 nM | 15% | < 10% |  |  |  | < 10% | 19% |  |  |
| Cc1ccn(-c2ccc(C(=O)N3Cc4cnn(C)c4Nc4ccccc43)c(Cl)c2)n1 |  |  |  |  | < 10% | 8.4 nM |  |  |  |  | 0.93 | 0.59 |
| Cc1ccn(-c2ccc(C(=O)N3CCCC(=O)c4ccccc43)c(Cl)c2)n1 | < 10 nM | < 10 nM | < 10 nM | < 10% | < 10% |  |  |  |  | 14% |  |  |
| O=C(c1ccc(-c2ncccn2)cc1)N1CCCCc2ccccc21 | 573 nM | 334 nM | 340 nM |  | < 10% |  | 177 nM |  | < 10% | 30.6% |  |  |
| CC(=O)Nc1ccc(C(=O)N2CCCCc3ccccc32)cc1 | 1080 nM | > 1000 nM | > 1000 nM |  | < 10% |  | 305 nM |  | < 10% | 32% |  |  |
| O=C(c1ccc(I)cc1)N1CCCCc2ccccc21 | 48 nM | 160 nM | 396 nM |  | < 10% |  | 15 nM |  | < 10% | 36% |  |  |
| O=C(c1ccc(Br)cc1)N1CCCCc2ccccc21 | 504 nM | 713 nM | < 10 nM |  | < 10% |  | 218 nM |  | < 10% | 20% |  |  |
